In data set [1] the test system is S. maltophilia K279a. The data set is described as follows: MIC broth microdilution, S. maltophilia K279a. The data set is classed as cell-based. Conditions: for MIC: Stenotrophomonas maltophilia, K279A, read-out: MIC of β-lactam. The protocol:
S. maltophilia K279a is a well-characterized isolate from Bristol, United Kingdom, and was obtained as previously reported ([46]).
(§1) MIC values were determined using broth microdilution, in triplicate, in cation-adjusted Mueller-Hinton broth (Sigma) according to the Clinical and Laboratory Standards Institute (CLSI) guidelines ([47]). […] Plates were incubated overnight at 37°C for 18 to 24 h, and the absorbance at 600 nm was read using a POLARstar Omega (BMG LabTech) plate reader.
(In general: In broth dilution the organism is exposed to a series of concentrations in liquid medium.)

Another data set has as its system K. pneumoniae Ecl8 pUBYT. As to the kind of experiment: MIC broth microdilution, K. pneumoniae Ecl8 pUBYT (empty vector). The format is cell-based. Conditions: Klebsiella pneumoniae, ECL8PUBYT, read-out: MIC of β-lactam.
From the text: (§2) The pUBYT vector containing blaKPC-3 under the ISKpn7 promoter was used as a template for site-directed mutagenesis to create pUBYT containing blaKPC-2 and blaKPC-4 with the same promoter ([45]). The single point mutation in KPC-2 (Y274H) and double point mutations in KPC-4 (P104R, V240G) were introduced using a QuikChange Lightning site-directed mutagenesis kit (Agilent Genomics) with the primers specified in Table S1 in the supplemental material. Klebsiella pneumoniae Ecl8 was transformed with the resulting pUBYT constructs via electroporation.
as §1

Data set [2] relates to K. pneumoniae Ecl8 pUBYT KPC-2. The data set is described as follows: microbe, parasite or virus in culture. The format is cell-based. Conditions: Klebsiella pneumoniae.
From the text: as §2, §1

The subject of data set [3] is K. pneumoniae Ecl8 pUBYT KPC-3. As to the kind of experiment: microbe, parasite or virus in culture. The data set is classed as cell-based. Conditions: Klebsiella pneumoniae.
From the text: as §2, §1

Data set [4] deals with K. pneumoniae Ecl8 pUBYT KPC-4. The data set is described as follows: microbe, parasite or virus in culture. The data set is classed as cell-based. Conditions: Klebsiella pneumoniae.
From the text: as §2, §1

Data set [5] has as its system S. maltophilia K279a. Conditions: with avibactam; cited from earlier work.
For data set [6], the target named is T1, KPC-2 (Klebsiella pneumoniae, UniProt Q9F663). The format is biochemical. Conditions: nitrocefin as substrate; standard error in parentheses, n = 3.
Procedure: (§4) Kinetic parameters were calculated and analyzed using GraphPad Prism 6.
The target in data set [7] is T2, KPC-3 (Klebsiella pneumoniae, UniProt Q9F663, H272Y). The data set is classed as biochemical. Conditions: nitrocefin as substrate; standard error in parentheses, n = 3.
Procedure: as §4
Data set [8] deals with T3, KPC-4 (Klebsiella pneumoniae, UniProt Q9F663, P103R/V239G). As to the kind of experiment: Steady-state nitrocefin hydrolysis, KPC-4. The data set is classed as biochemical. Conditions: nitrocefin as substrate; standard error in parentheses, n = 3.
Procedure: as §4
Data set [9] concerns the target T1, KPC-2. Conditions: cited from earlier work.
The next data set addresses OXA-48. The arrangement: method as in PMID 29627985. Conditions: cited from earlier work.
The target in data set [10] is T1, KPC-2. The arrangement: method as in PMID 29627985. Conditions: cited from earlier work.
For data set [11], the system named is KPC variants expressed in K. pneumoniae Ecl8. The format is cell-based, Klebsiella pneumoniae. Conditions: in the presence of 4 mg liter^−1 relebactam.
From the text: as §2, §1

Data set [12] has as its system O=C(Cc1cccs1)N[C@@H]1C(=O)N2C(C(=O)O)=C(/C=C/c3ccc([N+](=O)[O-])cc3[N+](=O)[O-])CS[C@H]12. The data set is described as follows: purified protein, by the assay type. Conditions: other: nitrocefin as substrate; standard error in parentheses, n = 3; pH 7.5; 25.0 °C.
Data set [13] concerns the target T4, CTX-M-15 (Escherichia coli, UniProt Q9EXV5). The data set is described as follows: biochemical.
Procedure: as §4
(§5) Diazabicyclooctanes were dissolved in DMSO (100 mM) and diluted to the desired concentration in 10 mM HEPES (pH 7.5) and 150 mM NaCl.
Data set [14] addresses T5, L2 (Stenotrophomonas maltophilia, UniProt Q9RBQ1). The data set is described as follows: IC50, nitrocefin hydrolysis after 10-minute preincubation, L2. The format is biochemical.
Procedure: as §4, §5
Data set [15] has as its target T1, KPC-2. Conditions: after 24 hours of incubation; cited from earlier work.
The target in data set [16] is T5, L2. The data set is described as follows: Direct competition of relebactam and nitrocefin (Kiapp, k2/K), L2. Conditions: Dixon plot, no preincubation; standard deviation in parentheses. The format is biochemical.
Procedure: as §4
(2) E+I⇌k−1k1E:I⇌k−2k2E-I→k3E-I′→k4E+P
(§6) Complete progress curves were fitted to equation 5 in order to obtain values for kobs (pseudo-first-order rate constant for inactivation).(5) A=vf*t+(v0−vf)*((1−e^−kobs*t)/kobs)+A0
(§7) ([I]) according to equation 6, with the uncorrected value for k2/K (k2/K′) then equal to the slope of the line.(6) kobs=k−2+k2/K^′*[I]
Data set [17] has as its target T4, CTX-M-15. As to the kind of experiment: Direct competition of relebactam and nitrocefin (Kiapp, k2/K), CTX-M-15. The format is biochemical.
Procedure: as §4
(2) E+I⇌k−1k1E:I⇌k−2k2E-I→k3E-I′→k4E+P
as §6, §7
Data set [18] has as its target T4, CTX-M-15. Conditions: recombinant enzyme. How it is done: (§3) Final enzyme concentrations were as follows: 50 nM KPC-2, 5 nM KPC-3, 50 nM KPC-4, 50 pM CTX-M-15, and 50 pM L2. Complete progress curves were collected, and the results fitted to equation 8 to obtain koff.(8) A=vf*t+(v0−vf)*(1−e^−kofft)/koff+A0
Data set [19] deals with T1, KPC-2. Conditions: recombinant enzyme. How it is done: as §3
For data set [20], the target named is T2, KPC-3. How it is done:
as §3

Data set [21] addresses T3, KPC-4. How it is done:
as §3

The target of data set [22] is T5, L2. Conditions: recombinant enzyme. The protocol:
as §3

The target in data set [23] is Pseudomonas-derived cephalosporinase-3 (PDC-3). Conditions: read-out: Kiapp; cited from earlier work.
Where [24] appears, read: ECL8PUBYTKPC2, read-out: MIC of β-lactam, no inhibitor present.
The mark [25] stands for this setting: ECL8PUBYTKPC3, read-out: MIC of β-lactam, no inhibitor present.
The mark [26] stands for this setting: ECL8PUBYTKPC4, read-out: MIC of β-lactam, no inhibitor present.

Several values for one entry are separate records, joined by “and”; a condition that tells them apart may be missing. Equal entries are not always repeated. Where two headings read alike, the source gives them in different places. Some results are limits rather than exact numbers.

Take `CC(C)(O/N=C(\C(=O)N[C@@H]1C(=O)N2C(C(=O)[O-])=C(C[n+]3ccccc3)CS[C@H]12)c1csc(N)n1)C(=O)O` [Ceftazidime, ceftazidime]: the MIC in the data set on S. maltophilia K279a [1] (+AVI (avibactam, 4 mg/liter)) is 8 µg/mL; in the data set with S. maltophilia K279a [1] (no inhibitor present), 16 µg/mL; with K. pneumoniae Ecl8 pUBYT it was less than 0.125 µg/mL; in data set [2] (ECL8PUBYTKPC2, read-out: MIC of β-lactam, +AVI (avibactam, 4 mg/liter)), 0.125 µg/mL; in [2] (setting [24]), 16 µg/mL; in [3] (ECL8PUBYTKPC3, read-out: MIC of β-lactam, +AVI (avibactam, 4 mg/liter)) it was less than 0.125 µg/mL. Moreover, the MIC in data set [3] (setting [25]) worked out at 128 µg/mL; in data set [4] (ECL8PUBYTKPC4, read-out: MIC of β-lactam, +AVI (avibactam, 4 mg/liter)), 1 µg/mL; in data set [4] (setting [26]), 128 µg/mL.
With `C[C@H]1[C@H](NC(=O)/C(=N\OC(C)(C)C(=O)O)c2csc(N)n2)C(=O)N1S(=O)(=O)O` [Aztreonam, aztreonam], the MIC in the data set on S. maltophilia K279a [1] (+REL (relebactam, 4 mg/liter)) is 8 µg/mL; with S. maltophilia K279a [1] (no inhibitor present) it was greater than 256 µg/mL. In addition, the “aztreonam MIC” value in the data set on S. maltophilia K279a [1] (addition of relebactam) was 8 µg/mL; in the data set with S. maltophilia K279a [1] (without inhibitor) it was 256 µg/mL; in the data set with S. maltophilia K279a [5], 2 µg/mL.
Turning to `O=C(Cc1cccs1)N[C@@H]1C(=O)N2C(C(=O)O)=C(/C=C/c3ccc([N+](=O)[O-])cc3[N+](=O)[O-])CS[C@H]12` [Nitrocefin, nitrocefin], the Km was 18.3 µM at KPC-2 [6], 36 µM at KPC-3 [7] and 59 µM on KPC-4 [8]. In addition, the values for the kcat at KPC-2 [6], at KPC-3 [7] and on KPC-4 [8] were 613 (9) s-1, 88 (8) s-1 and 166 (44) s-1, respectively.
As to `O=C(NNC(=O)[C@@H]1CC[C@@H]2CN1C(=O)N2OS(=O)(=O)O)[C@@H]1CCCNC1` [WCK-5107, zidebactam], on KPC-2 [9], the “Ki value, fold higher than avibactam” value is on record as 5 fold and the “Ki value, fold higher than relebactam” value is 2 fold.
Consider `N#C[C@@H]1CC[C@@H]2CN1C(=O)N2OS(=O)(=O)O` [WCK-4234], for which, on OXA-48, the Ki was 290 nM. Moreover, the off rate at KPC-2 [10] is 0.00045 s⁻¹.
As for `C[C@@H](O)[C@H]1C(=O)N2C(C(=O)O)=C(SCCN=CN)C[C@H]12` [Imipenem, imipenem], the MIC in the data set on S. maltophilia K279a [1] (+REL (relebactam, 4 mg/liter)) was 64 µg/mL; in the data set on S. maltophilia K279a [1] (no inhibitor present) it was 128 µg/mL; in the data set on K. pneumoniae Ecl8 pUBYT it was less than 0.0625 µg/mL; in [2] (ECL8PUBYTKPC2, read-out: MIC of β-lactam, +REL (relebactam, 4 mg/liter)) it was 0.5 µg/mL; in [2] (setting [24]), 64 µg/mL; in data set [3] (ECL8PUBYTKPC3, read-out: MIC of β-lactam, +REL (relebactam, 4 mg/liter)) it was less than 0.125 µg/mL. The MIC in data set [3] (setting [25]) turned out to be 16 µg/mL; in data set [4] (ECL8PUBYTKPC4, read-out: MIC of β-lactam, +REL (relebactam, 4 mg/liter)), 0.125 µg/mL; in data set [4] (setting [26]) it was 0.5 µg/mL. Also, the “imipenem MICs in all KPC producers” value in [11] was no more than 0.5 mg/L.
For orientation: kcat/Km means the turnover number divided by the Michaelis constant. For CTX-M-15 (Escherichia coli), in data set [12], the Km is on record as 63 (11) µM, the kcat is on record as 312 (8) s-1 and the kcat/Km is 5e+06 M⁻¹ s⁻¹.
By IC50 is commonly meant the concentration that gives 50% inhibition. The low end stands for higher potency, the high end for lower potency. With `NC(=O)[C@@H]1CC[C@@H]2CN1C(=O)N2OS(=O)(=O)O` [Avibactam, avibactam], the IC50 on CTX-M-15 [13] is 3.4 nM; against L2 [14], 15 nM. On KPC-2 [15], the KPC-2 remaining acylated is listed as 10%.
Take `O=C(NC1CCNCC1)[C@@H]1CC[C@@H]2CN1C(=O)N2OS(=O)(=O)O` [Relebactam, relebactam]: the IC50 at CTX-M-15 [13] is 400 nM; at L2 [14] it was 470 nM. Also, the Ki is 3000 nM and 2700 nM at L2 [16]; 21000 nM on CTX-M-15 [17]; 3400 nM in data set [23]. Moreover, the t1/2 at CTX-M-15 [18] was found to be 30 min; at KPC-2 [19], 13 min; on KPC-3 [20] (recombinant enzyme), 58 min; at KPC-4 [21] (recombinant enzyme), 61 min; at L2 [22], 21 min. Also, the “reduction in off-rate compared with KPC-2” value on KPC-3 [20] (KPC-3 vs KPC-2) and at KPC-4 [21] (KPC-4 vs KPC-2) was roughly 4.5 fold each time.
With L2 (Stenotrophomonas maltophilia), in data set [12], the Km was 206 (27) µM, the kcat was 813 (41) s-1 and the kcat/Km is 4e+06 M⁻¹ s⁻¹.

Values taken from paper PMC6761529 (Antimicrobial Agents and Chemotherapy, 2019).
